Measurements: article PMC4604091, “Two homolog wheat Glycogen Synthase Kinase 3/SHAGGY - like kinases are involved in brassinosteroid signaling” (BMC Plant Biology, 2015)

Assays:
TaGSK1 = biological target: T1, TaGSK1 (Triticum aestivum, UniProt Q8LK43); assay: in vitro kinase assay, […] phosphorylation of myelin basic protein, autoradiography; format: biochemical; details: read-out: % residual activity at 15 μM
T1 construct: full length, N-terminal GST fusion, expressed in E. coli, glutathione Sepharose purified, tag kept
T1 sequence (Q8LK43 1-381): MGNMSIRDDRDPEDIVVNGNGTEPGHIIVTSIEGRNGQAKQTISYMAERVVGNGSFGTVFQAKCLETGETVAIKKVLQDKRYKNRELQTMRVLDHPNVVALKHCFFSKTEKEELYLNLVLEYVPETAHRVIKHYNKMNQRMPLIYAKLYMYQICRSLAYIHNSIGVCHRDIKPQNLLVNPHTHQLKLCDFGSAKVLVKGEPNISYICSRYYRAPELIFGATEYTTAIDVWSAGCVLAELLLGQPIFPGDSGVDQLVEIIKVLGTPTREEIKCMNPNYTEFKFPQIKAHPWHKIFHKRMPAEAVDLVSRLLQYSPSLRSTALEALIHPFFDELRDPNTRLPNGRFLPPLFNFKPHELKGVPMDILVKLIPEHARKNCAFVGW

BIN2 = biological target: T2, BIN2 (Arabidopsis thaliana, UniProt Q39011); assay: as above; format: biochemical; details: read-out: % residual activity at 15 μM
T2 construct: gene ASK7; full length, N-terminal GST fusion, expressed in E. coli, glutathione Sepharose purified, tag kept
T2 sequence (Q39011 1-380): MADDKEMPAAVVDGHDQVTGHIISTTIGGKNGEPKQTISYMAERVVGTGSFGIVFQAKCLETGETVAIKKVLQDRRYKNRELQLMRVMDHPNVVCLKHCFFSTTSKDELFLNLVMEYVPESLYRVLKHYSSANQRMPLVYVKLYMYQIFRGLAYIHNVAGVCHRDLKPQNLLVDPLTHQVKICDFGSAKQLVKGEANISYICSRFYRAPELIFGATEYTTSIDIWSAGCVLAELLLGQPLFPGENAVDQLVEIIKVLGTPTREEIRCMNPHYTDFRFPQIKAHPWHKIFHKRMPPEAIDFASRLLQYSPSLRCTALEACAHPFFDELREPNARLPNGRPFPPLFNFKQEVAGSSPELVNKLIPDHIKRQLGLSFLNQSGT

remaining activity at 15 µM (TaGSK1): ~30%
remaining activity at 15 µM (BIN2): < 5%
Compound: O=C(O)CCC(=O)Nc1ccc(Br)cn1 [Bikinin, 4-[(5-bromo-2-pyridinyl)amino]-4-oxobutanoic acid]
